Values belong to the compound of their own block, whether it stands above or below them.
Assays:
Assay type in all cases: ADME
[1] = target: T1, ATP-binding cassette sub-family C member 4 (Homo sapiens, UniProt O15439); test: Inhibitors of transporters of clinical importance in the absorption and disposition of drugs, MRP4
T1 sequence (O15439 whole entry): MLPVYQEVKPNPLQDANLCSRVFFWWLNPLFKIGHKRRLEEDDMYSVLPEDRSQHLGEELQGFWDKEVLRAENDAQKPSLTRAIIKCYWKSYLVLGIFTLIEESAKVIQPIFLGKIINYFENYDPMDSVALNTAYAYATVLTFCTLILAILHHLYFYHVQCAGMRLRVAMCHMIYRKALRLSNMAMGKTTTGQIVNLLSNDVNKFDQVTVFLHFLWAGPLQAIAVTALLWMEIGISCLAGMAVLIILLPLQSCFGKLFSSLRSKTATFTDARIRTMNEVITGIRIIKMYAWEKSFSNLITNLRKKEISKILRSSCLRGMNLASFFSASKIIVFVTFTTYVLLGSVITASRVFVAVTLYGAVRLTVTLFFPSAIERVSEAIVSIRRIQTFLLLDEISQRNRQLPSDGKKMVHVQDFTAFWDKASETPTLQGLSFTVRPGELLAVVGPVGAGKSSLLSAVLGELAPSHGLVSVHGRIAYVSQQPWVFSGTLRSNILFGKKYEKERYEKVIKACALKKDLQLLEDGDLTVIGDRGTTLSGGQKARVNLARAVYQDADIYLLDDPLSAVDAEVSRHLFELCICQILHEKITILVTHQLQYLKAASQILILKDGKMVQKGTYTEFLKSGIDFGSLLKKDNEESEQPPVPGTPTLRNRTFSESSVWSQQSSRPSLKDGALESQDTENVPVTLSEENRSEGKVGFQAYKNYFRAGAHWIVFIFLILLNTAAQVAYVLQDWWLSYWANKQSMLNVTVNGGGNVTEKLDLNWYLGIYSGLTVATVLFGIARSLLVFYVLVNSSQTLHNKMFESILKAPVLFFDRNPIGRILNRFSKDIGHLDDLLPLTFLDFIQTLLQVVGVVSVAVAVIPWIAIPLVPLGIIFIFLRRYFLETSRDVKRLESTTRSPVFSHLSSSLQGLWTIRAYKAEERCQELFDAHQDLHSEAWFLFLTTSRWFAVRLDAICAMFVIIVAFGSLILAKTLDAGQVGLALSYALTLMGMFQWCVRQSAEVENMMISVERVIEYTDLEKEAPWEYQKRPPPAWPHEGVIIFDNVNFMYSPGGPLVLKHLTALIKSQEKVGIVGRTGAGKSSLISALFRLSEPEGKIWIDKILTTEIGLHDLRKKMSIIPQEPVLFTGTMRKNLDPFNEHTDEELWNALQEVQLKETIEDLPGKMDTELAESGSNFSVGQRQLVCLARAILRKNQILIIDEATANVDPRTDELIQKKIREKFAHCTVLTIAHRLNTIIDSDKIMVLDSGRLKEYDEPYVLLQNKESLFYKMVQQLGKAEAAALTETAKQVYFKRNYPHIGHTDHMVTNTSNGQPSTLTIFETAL

[2] = target: ATP-binding cassette sub-family C member 3 (Homo sapiens, UniProt O15438); test: Inhibitors of transporters of clinical importance in the absorption and disposition of drugs, MPR3
ATP-binding cassette sub-family C member 3, sequence (O15438 whole entry): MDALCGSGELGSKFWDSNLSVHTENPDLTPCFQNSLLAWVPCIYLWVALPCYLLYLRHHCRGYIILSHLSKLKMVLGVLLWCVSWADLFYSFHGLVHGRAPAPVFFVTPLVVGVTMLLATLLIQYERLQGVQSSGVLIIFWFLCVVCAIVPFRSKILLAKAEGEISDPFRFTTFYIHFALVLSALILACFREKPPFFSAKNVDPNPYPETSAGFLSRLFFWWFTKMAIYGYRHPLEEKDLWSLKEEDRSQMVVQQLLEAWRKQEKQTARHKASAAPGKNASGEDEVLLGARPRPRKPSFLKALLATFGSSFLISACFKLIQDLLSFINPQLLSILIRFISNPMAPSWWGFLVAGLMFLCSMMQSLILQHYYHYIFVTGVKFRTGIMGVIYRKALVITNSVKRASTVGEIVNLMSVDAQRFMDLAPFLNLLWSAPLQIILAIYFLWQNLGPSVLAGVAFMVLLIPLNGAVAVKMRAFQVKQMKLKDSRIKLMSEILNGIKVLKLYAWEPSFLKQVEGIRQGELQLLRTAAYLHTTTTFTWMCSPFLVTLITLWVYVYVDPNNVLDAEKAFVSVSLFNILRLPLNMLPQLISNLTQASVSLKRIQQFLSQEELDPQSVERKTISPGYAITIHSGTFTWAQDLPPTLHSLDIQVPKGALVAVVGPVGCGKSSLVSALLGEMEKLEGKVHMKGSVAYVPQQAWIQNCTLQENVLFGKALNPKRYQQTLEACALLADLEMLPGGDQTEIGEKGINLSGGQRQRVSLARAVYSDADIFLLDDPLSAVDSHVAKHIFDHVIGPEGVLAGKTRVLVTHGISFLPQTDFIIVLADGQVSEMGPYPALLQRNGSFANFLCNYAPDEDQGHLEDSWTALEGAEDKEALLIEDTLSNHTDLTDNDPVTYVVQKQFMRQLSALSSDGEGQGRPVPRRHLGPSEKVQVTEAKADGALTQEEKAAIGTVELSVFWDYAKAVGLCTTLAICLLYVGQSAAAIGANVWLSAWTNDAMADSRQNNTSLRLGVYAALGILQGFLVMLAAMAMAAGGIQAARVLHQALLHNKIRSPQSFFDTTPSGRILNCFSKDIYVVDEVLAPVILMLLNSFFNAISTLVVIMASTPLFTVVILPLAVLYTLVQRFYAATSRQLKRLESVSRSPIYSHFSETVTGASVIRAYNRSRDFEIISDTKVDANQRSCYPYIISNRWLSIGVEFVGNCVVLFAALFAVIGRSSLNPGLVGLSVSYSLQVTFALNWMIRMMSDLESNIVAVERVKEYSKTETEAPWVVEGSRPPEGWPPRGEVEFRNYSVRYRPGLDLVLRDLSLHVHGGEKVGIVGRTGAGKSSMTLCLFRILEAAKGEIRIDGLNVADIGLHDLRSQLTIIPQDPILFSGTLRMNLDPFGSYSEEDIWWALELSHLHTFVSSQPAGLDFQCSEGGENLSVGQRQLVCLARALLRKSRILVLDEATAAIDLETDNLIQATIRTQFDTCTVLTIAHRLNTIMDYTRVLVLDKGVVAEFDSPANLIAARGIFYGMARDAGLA

[3] = target: ATP-binding cassette sub-family C member 2 (Homo sapiens, UniProt Q92887); test: Inhibitors of transporters of clinical importance in the absorption and disposition of drugs, MRP2
ATP-binding cassette sub-family C member 2, sequence (Q92887 whole entry): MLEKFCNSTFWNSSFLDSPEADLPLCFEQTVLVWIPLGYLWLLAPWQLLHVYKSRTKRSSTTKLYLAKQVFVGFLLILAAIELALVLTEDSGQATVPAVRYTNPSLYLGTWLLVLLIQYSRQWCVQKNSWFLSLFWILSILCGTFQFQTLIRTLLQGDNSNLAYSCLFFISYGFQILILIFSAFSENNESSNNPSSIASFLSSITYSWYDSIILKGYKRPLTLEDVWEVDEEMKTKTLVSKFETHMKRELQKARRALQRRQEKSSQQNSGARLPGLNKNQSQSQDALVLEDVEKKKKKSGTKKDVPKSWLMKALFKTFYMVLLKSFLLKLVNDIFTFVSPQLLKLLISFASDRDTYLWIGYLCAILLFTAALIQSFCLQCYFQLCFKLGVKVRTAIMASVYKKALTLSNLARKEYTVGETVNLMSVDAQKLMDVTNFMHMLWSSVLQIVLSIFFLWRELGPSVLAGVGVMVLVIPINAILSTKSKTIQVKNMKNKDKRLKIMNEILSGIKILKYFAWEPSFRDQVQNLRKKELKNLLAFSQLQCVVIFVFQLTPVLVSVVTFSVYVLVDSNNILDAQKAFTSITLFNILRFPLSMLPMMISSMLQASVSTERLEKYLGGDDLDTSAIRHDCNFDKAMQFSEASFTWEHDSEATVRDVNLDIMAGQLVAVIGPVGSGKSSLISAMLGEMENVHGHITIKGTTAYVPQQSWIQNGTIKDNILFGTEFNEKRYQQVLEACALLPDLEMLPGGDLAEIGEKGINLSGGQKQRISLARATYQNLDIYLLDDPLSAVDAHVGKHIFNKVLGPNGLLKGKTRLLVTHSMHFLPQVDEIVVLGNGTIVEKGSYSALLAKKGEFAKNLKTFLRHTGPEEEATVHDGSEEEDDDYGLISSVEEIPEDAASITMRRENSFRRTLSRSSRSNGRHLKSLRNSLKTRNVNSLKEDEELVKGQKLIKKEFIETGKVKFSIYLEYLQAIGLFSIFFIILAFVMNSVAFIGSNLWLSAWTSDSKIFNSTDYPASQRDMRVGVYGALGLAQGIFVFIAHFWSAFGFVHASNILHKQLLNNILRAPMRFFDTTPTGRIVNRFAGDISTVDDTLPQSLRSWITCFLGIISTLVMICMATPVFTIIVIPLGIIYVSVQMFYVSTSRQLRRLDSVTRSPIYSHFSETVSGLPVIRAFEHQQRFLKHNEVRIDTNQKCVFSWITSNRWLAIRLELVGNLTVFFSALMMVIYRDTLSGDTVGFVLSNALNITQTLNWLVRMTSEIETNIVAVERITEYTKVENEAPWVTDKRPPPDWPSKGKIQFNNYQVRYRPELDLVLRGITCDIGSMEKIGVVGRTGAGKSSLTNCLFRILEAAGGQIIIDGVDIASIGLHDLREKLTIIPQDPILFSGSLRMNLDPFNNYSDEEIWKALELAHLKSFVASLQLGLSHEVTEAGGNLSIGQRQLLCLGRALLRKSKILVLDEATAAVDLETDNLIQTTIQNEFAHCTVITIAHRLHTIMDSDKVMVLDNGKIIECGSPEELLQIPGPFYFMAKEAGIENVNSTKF

[4] = target: T2, Solute carrier family 15 member 2 (Homo sapiens, UniProt Q16348); test: Inhibitors of transporters of clinical importance in the absorption and disposition of drugs, PEPT2
T2 sequence (Q16348 whole entry): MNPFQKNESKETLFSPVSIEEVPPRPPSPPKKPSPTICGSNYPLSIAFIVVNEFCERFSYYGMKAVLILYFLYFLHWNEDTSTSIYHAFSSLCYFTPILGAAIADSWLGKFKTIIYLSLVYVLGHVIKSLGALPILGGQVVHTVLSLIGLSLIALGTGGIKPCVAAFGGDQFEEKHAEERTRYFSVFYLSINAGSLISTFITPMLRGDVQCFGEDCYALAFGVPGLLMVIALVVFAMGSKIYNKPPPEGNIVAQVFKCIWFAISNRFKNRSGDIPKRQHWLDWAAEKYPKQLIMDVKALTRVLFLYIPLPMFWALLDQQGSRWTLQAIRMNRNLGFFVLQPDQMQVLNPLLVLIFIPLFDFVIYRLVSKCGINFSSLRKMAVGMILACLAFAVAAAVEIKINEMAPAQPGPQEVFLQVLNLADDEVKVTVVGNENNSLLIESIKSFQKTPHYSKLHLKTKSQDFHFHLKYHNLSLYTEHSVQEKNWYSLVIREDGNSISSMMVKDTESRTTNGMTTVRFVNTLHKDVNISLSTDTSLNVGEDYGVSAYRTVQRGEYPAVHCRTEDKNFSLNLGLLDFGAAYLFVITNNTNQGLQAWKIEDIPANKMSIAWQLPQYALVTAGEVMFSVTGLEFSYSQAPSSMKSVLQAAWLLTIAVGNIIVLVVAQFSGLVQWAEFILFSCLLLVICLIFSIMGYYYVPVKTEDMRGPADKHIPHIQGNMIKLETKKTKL

[5] = target: T3, Solute carrier organic anion transporter family member 1B3 (Homo sapiens, UniProt Q9NPD5); test: Inhibitors of transporters of clinical importance in the absorption and disposition of drugs, OATP1B3
T3 sequence (Q9NPD5 whole entry): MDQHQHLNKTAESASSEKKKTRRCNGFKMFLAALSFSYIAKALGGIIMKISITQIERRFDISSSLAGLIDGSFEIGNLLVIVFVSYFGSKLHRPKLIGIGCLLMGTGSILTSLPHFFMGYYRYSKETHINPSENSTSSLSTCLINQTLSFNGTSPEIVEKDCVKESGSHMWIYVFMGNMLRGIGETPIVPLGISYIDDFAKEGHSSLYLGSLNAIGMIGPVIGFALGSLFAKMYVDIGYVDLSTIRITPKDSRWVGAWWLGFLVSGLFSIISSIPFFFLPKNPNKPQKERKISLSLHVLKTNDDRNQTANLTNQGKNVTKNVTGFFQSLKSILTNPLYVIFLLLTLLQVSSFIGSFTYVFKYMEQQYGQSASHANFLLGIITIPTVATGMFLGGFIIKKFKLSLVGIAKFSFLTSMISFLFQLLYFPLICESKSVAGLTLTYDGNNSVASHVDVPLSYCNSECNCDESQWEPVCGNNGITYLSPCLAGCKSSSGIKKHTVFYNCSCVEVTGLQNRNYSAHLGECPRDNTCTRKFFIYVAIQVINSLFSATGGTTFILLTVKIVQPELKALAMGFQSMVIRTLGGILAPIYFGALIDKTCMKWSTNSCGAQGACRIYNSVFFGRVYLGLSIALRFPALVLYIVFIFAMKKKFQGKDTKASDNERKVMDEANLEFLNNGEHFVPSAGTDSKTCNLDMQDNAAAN

[6] = target: T4, Solute carrier organic anion transporter family member 1A2 (Homo sapiens, UniProt P46721); test: Inhibitors of transporters of clinical importance in the absorption and disposition of drugs, OATP1A2
T4 sequence (P46721 whole entry): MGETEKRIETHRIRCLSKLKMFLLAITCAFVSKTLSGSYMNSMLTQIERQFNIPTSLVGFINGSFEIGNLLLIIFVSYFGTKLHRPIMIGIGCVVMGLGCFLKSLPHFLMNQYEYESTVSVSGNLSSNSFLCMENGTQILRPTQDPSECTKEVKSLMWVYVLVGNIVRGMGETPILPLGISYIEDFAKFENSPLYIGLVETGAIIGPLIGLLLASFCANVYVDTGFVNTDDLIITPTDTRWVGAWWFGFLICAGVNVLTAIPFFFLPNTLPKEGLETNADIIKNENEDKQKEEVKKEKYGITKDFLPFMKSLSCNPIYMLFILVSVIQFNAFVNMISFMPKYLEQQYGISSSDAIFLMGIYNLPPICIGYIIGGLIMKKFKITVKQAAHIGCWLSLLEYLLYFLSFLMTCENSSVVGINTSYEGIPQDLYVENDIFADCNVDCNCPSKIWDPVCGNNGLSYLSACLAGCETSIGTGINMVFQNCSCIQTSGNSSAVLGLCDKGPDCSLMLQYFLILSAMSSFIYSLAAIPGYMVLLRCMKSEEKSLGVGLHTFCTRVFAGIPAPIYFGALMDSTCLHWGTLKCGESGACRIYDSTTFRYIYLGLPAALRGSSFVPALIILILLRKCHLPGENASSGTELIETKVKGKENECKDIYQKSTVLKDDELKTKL

[7] = target: T5, Solute carrier organic anion transporter family member 1B1 (Homo sapiens, UniProt Q9Y6L6); test: Inhibitors of transporters of clinical importance in the absorption and disposition of drugs, OATP1B1
T5 sequence (Q9Y6L6 whole entry): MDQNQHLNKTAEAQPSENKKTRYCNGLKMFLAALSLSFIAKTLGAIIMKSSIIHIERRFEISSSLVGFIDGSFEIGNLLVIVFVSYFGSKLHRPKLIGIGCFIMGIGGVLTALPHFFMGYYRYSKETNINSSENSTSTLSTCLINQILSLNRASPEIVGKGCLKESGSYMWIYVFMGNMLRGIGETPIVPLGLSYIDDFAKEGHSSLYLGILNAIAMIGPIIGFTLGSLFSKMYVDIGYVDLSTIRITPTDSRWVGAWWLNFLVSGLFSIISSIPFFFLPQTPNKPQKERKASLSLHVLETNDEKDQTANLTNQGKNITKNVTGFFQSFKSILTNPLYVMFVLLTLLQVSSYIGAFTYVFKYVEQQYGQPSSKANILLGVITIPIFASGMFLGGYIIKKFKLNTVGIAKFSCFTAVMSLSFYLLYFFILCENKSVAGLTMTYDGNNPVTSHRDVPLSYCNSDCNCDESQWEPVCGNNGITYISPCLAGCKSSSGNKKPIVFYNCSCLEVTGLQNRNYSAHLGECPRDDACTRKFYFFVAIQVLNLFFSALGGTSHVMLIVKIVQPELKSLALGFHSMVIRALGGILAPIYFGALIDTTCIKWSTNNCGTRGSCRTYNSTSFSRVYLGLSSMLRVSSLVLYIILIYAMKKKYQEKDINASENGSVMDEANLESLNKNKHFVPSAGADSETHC

[8] = target: T6, Solute carrier family 22 member 6 (Homo sapiens, UniProt Q4U2R8); test: Inhibitors of transporters of clinical importance in the absorption and disposition of drugs, OAT1
T6 sequence (Q4U2R8 whole entry): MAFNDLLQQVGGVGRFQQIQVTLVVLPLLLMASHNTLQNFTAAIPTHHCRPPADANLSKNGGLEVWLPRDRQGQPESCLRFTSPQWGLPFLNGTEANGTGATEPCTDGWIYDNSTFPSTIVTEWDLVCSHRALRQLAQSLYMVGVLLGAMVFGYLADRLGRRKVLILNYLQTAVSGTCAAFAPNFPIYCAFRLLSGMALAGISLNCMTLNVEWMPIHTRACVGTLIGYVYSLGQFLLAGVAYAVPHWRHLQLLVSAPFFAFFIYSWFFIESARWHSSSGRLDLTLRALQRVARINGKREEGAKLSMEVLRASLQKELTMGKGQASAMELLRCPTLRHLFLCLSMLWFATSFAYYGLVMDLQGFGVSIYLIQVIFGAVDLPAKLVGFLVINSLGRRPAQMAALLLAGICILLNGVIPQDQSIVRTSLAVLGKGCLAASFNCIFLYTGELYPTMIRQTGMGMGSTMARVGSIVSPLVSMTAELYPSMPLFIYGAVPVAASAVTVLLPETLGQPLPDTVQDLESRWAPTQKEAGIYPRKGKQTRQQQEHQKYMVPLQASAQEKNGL

[9] = target: T7, Organic anion transporter 3 (Homo sapiens, UniProt Q8TCC7); test: Inhibitors of transporters of clinical importance in the absorption and disposition of drugs, OAT3
T7 sequence (Q8TCC7 whole entry): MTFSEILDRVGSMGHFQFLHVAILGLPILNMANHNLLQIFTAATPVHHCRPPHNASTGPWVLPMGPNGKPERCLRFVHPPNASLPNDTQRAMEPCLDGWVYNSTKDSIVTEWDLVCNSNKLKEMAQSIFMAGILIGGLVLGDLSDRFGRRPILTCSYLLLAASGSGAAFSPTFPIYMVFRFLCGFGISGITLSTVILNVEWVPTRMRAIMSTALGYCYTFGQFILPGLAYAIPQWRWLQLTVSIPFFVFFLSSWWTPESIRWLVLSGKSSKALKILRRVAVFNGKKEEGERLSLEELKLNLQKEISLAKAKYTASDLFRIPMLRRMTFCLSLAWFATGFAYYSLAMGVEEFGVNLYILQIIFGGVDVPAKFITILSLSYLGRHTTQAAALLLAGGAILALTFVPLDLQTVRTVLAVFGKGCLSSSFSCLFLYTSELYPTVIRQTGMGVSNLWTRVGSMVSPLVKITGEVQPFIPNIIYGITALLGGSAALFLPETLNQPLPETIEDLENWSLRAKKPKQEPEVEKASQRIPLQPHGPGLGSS

- Activity [9]: transporter inhibitor
Structure (SMILES): CCCN(CCC)S(=O)(=O)c1ccc(C(=O)O)cc1 [PROBENECID]

- Activity [4]: transporter inhibitor
Structure (SMILES): C[C@H](CSC(=O)c1ccccc1)C(=O)N1C[C@@H](Sc2ccccc2)C[C@H]1C(=O)O [ZOFENOPRIL]

Second part, the compound before the results:

Structure (SMILES): Cc1ccc(-c2cc(C(F)(F)F)nn2-c2ccc(S(N)(=O)=O)cc2)cc1 [CELECOXIB]
- Activity [1]: transporter inhibitor

Structure (SMILES): O=C(O)Cc1ccccc1Nc1c(Cl)cccc1Cl [DICLOFENAC]
- Activity [1]: transporter inhibitor

Structure (SMILES): Nc1nc(=O)n([C@@H]2CS[C@H](CO)O2)cc1F [EMTRICITABINE]
- Activity [2]: transporter inhibitor
- Activity [3]: transporter inhibitor

Structure (SMILES): CCC(=O)O[C@@H](O[P@](=O)(CCCCc1ccccc1)CC(=O)N1C[C@H](C2CCCCC2)C[C@H]1C(=O)O)C(C)C [FOSINOPRIL]
- Activity [4]: transporter inhibitor

Structure (SMILES): Cc1cccc(C)c1OCC(=O)N[C@@H](Cc1ccccc1)[C@@H](O)C[C@H](Cc1ccccc1)NC(=O)[C@H](C(C)C)N1CCCNC1=O [LOPINAVIR]
- Activity [5]: transporter inhibitor
- Activity [6]: transporter inhibitor
- Activity [7]: transporter inhibitor

Structure (SMILES): CO[C@@H]1[C@@H](OC(N)=O)[C@@H](O)[C@H](Oc2ccc3c(O)c(NC(=O)c4ccc(O)c(CC=C(C)C)c4)c(=O)oc3c2C)OC1(C)C [NOVOBIOCIN]
- Activity [8]: transporter inhibitor
- Activity [9]: transporter inhibitor
